“Also recorded” adds a separate entry of the source. Read-outs that look alike come from different tables or passages of the source. Where no end group is shown, it is not given here.
Tests used:
P. aeruginosa ATCC 15442 = assay type: cell-based
Excerpt: (§1) All bacterial strains were obtained from Department of Medical Microbiology, University of Malaya. Clinical isolates were previously obtained from University of Malaya Medical Centre and maintained in the laboratory. Sheep blood agar was used for pneumococcal cultivation purpose. Nutrient agar was used for cultivating E. coli ATCC 25922, S. aureus ATCC 25923, and P. aeruginosa ATCC 15442, Acinetobacter baumanii ATCC 15308, and one clinical isolate for each MRSA, E. cloacae, Citrobacter spp., and K. pneumoniae. For antimicrobial testing, Mueller-Hinton agar (MHA) and cationically-adjusted MHB (CAMHB) were prepared according to the Clinical and Laboratory Standard Institute guidelines. MHA for S. pneumoniae was supplemented with 5% (v/v) defibrinated sheep blood and 5% laked horse blood for CAMHB. All bacterial cultures were stored in multiple vials in brain heart infusion broth supplemented with 10% (v/v) glycerol at −80°C to avoid repeated freeze-thawed cycles on the cells. All freeze-stocked strains were passaged twice prior to experimentation.
(§2) Procedures were performed to determine the MIC of peptides according to the CLSI guidelines[21] against 60 pneumococcal isolates which consisted of 20 isolates each for PRSP, PISP, and PSSP. Strains were grown for 18–24 hrs at 37°C under 5% CO2. Direct suspension of the colonies were made in CAMHB and adjusted to OD625 0.08–0.1 which corresponds to 1 ~ 2 × 10^8 CFU/ml followed by serial ten-fold dilutions to give 1 × 10^6 CFU/ml. Fifty microliters of bacterial suspension was then aliquoted to 96-well round bottom microtiter plates containing equal volume of serially diluted peptides to give final concentrations of peptides encompassing the range of 1.96–250 μg/ml. […] The plates were incubated for 18–24 hrs at 37°C under 5% CO2. MIC was read as the concentration of peptide producing complete inhibition on the visible growth of the test organism. Results were pooled from three independent experiments. MIC range was defined as the range of concentrations where the peptides produce detectable antimicrobial activity. Effective percentage (EP) was the proportion of pneumococcal isolates inhibited within the MIC range. Since the isolates tested were obtained prior to 2008 where major revision in antibiotic susceptibility breakpoints were introduced, thus the pneumococci were defined according to the PEN susceptibility breakpoint (prior 2008) which corresponds to the PEN (oral penicillin V) breakpoint of the revised criteria.
(§3) The broad spectrum antibacterial activity of the peptides against a panel of eight clinically important bacteria was also determined, this includes S. aureus ATCC 25923, E. coli ATCC 25922, P. aeruginosa ATCC 15442, A. baumanii ATCC 15308, and one clinical isolate each for MRSA, E. cloacae, Citrobacter spp., and K. pneumoniae.

S. aureus ATCC 25923 = assay type: cell-based
Excerpt: as §1, §2, §3

E. coli ATCC 25922 = assay type: cell-based
Excerpt: as §1, §2, §3

Citrobacter spp. = assay type: cell-based; conditions: Gram-negative, clinical isolate; broth microdilution, CAMHB, peptides 1.96–250 μg/ml
Excerpt: as §1, §2, §3

PISP = assay type: cell-based, Streptococcus pneumoniae
Method in brief: (§4)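 Time-kill kinetics: one PRSP, one PISP and one PSSP isolate (5 × 10^6 CFU/ml in CAMHB) exposed to peptides at 2× MIC. Viable counts plated on MHA at 0–240 min. Survival given as % of untreated-control CFU at each time, mean ± SD of three experiments.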

PRSP [1] = assay type: cell-based, Streptococcus pneumoniae
Method in brief: as §4

E. cloaceae = assay type: cell-based, E. cloacae; conditions: Gram-negative, clinical isolate; broth microdilution, CAMHB, peptides 1.96–250 μg/ml
Excerpt: as §1, §2, §3

PRSP [2] = assay: Transmission electron microscopy of treated pneumococci; assay type: cell-based, Streptococcus pneumoniae; conditions: PRSP 5 × 10^10 CFU/ml, peptides 8 mg/ml, four hours 37°C 5% CO2
Description: An overnight culture of PRSP on sheep blood agar was passaged twice and directly suspended in CAMHB. As sample for TEM required high cell density of about 10^8 to 10^10 to be viewable, the bacteria was prepared to 5 × 10^10 CFU/ml and treated with supra-concentration of peptides at 8 mg/ml for four hours at 37°C under 5% CO2. Cells treated with only water was served as the untreated control. For TEM sample preparation, standard protocol provided by the Electron Microscopic Unit, Faculty of Medicine, University of Malaya was followed. The cells were washed twice with CAMHB before overnight fixation in 4% (v/v) glutaraldehyde, two times postfix washes with cacodylate buffer, incubate, two hours incubation with osmium tetroxide buffer (OsO4 1: 1 cacodylate), and washed twice with cacodylate buffer before overnight incubation in the same buffer. Next, the samples were washed twice with double distilled water, 10 min of uranyl acetate incubation, and washed twice with double distilled water before subjected to dehydration by gradual ethanol series: 35% for 10 min, 50% for 10 min, 70% for 10 min, 95% for 15 min, and three rounds of absolute (100%) ethanol for 15 min. Following this, samples were incubated with two rounds of propylene oxide for 15 min, propylene oxide 1:1 Epon for 1 hr, propylene oxide 1:3 Epon for 2 hrs, overnight incubation with Epon, embedded in Agar 100 resin at 37°C for five hours, and maintained in 60°C until viewing. Ultrathin sectioning were prepared on Reichert Ultramicrotome, copper grids 3.05 mm (300 square mesh) (Agar Scientific), and stained with ethanol-based uranyl acetate and lead citrate for 5 min. The prepared samples were viewed with Leo Libra 120 under standard operating conditions.

[3] = test system: penicillin-resistant Streptococcus pneumoniae (PRSP); assay type: cell-based; conditions: for MIC, PRSP: MIC range over 20 PRSP isolates, CLSI broth microdilution, CAMHB with 5% laked horse blood, 18–24 hrs 37°C 5% CO2, peptides 1.96–250 μg/ml, three independent experiments; for EP %, PRSP: effective percentage: proportion of isolates inhibited within the MIC range
Excerpt: as §1, §2

A. baumanii ATCC 15308 = assay type: cell-based, Acinetobacter baumanii
Excerpt: as §1, §2, §3

K. pneumoniae = assay type: cell-based, Klebsiella pneumoniae; conditions: Gram-negative, clinical isolate; broth microdilution, CAMHB, peptides 1.96–250 μg/ml
Excerpt: as §1, §2, §3

[4] = test system: multiple gram-positive and gram-negative bacteria; assay type: cell-based; conditions: range: DM3 against seven bacteria; DM4 and DM5 apart from higher MICs against E. cloaceae, K. pneumoniae, S. aureus
Excerpt: as §1, §2, §3

[5] = 30 min post treatment, 2× MIC, 5 × 10^6 CFU/ml in CAMHB, plate count, relative to untreated control
[6] = Gram-negative, broth microdilution, CAMHB, peptides 1.96–250 μg/ml
[7] = Gram-positive, broth microdilution, CAMHB, peptides 1.96–250 μg/ml

Substance	MIC, P. aeruginosa ATCC 15442 (P. aeruginosa ATCC 15442; ATCC 15442)	MIC, S. aureus ATCC 25923 (S. aureus ATCC 25923; ATCC 25923)	MIC, E. coli ATCC 25922 (E. coli ATCC 25922; ATCC 25922)	MIC, Citrobacter spp. (Citrobacter spp.)	difference in killing kinetics over PEN, PISP (PISP; 2)	difference in killing kinetics over PEN, PRSP (PRSP [1]; 2)	MIC, E. cloaceae (E. cloaceae)	changes in pneumococcal cell morphology (TEM) (PRSP [2])	MIC, PRSP [3]	EP %, PRSP [3]	MIC, A. baumanii ATCC 15308 (A. baumanii ATCC 15308; ATCC 15308)	MIC, K. pneumoniae (K. pneumoniae)	antibacterial MIC range over the bacterial panel [4]	MIC, P. aeruginosa ATCC 15442 (P. aeruginosa ATCC 15442; [6])	MIC, S. aureus ATCC 25923 (S. aureus ATCC 25923; [7])	MIC, E. coli ATCC 25922 (E. coli ATCC 25922; [6])	difference in killing kinetics over PEN, PISP (PISP; 30 min post treatment, 2× MIC)	difference in killing kinetics over PEN, PRSP (PRSP [1]; 30 min post treatment, 2× MIC)	MIC, A. baumanii ATCC 15308 (A. baumanii ATCC 15308; [6])	further results
GLFDIWAWWRWRR-NH2 [DM2]	>250 µg/mL	31.3 µg/mL	250 µg/mL	62.5 µg/mL	65.4%	64.1%	>250 µg/mL	filamentous and stacked at one pole of the cell	15.63 to 250 µg/mL	(100.0) %	31.3 µg/mL	>250 µg/mL								CFU recovered, PISP (PISP; [5]): 12.4%; CFU recovered, PRSP (PRSP [1]; [5]): completely killed
GLFDIWKKLRWRR-NH2 [DM5]	31.3 µg/mL	125 µg/mL	31.3 µg/mL	31.3 µg/mL	58.5%	38.1%	125 µg/mL	Loss of cell wall fragments; also recorded: formation of cytoplasmic-containing inclusion bodies	31.3 to 125 µg/mL	(100.0) %	31.3 µg/mL	250 µg/mL	31.3 to 62.5 µg/mL							
GLFDIWKKWRWRR-NH2 [DM4]				31.3 µg/mL			250 µg/mL	Loss of cell wall fragments	31.3 to 125 µg/mL	(100.0) %		>250 µg/mL	31.3 to 62.5 µg/mL	31.3 µg/mL	62.5 µg/mL	62.5 µg/mL	57.8%	39.0%	31.3 µg/mL	
GLFDIWKWWRWRR-NH2 [DM3]	125 µg/mL	15.63 µg/mL	62.5 µg/mL	15.63 µg/mL	76.0%	60.0%	31.3 µg/mL	formation of cytoplasmic-containing inclusion bodies	15.63 to 62.5 µg/mL	(100.0) %	15.63 µg/mL	62.5 µg/mL	7.81 to 62.5 µg/mL							
GLFDKWAWWRWRR-NH2 [DM1]				31.3 µg/mL			125 µg/mL	formation of cytoplasmic-containing inclusion bodies	31.3 to 125 µg/mL	(100.0) %		>250 µg/mL		125 µg/mL	125 µg/mL	62.5 µg/mL	54.2%	52.9%	62.5 µg/mL	

Reference: paper PMC4434909, “In vitro properties of designed antimicrobial peptides that exhibit potent antipneumococcal activity and produces synergism in combination with penicillin” (Scientific Reports, 2015)
